Test results from the NIST ThermoML archive (doi:10.1016/j.jct.2012.11.026).
Numbers after ± are expanded uncertainties.

Columns and labels:
[1] = Solid-liquid equilibrium temperature; conditions: Crystal, visual observation
[2] = Liquid-liquid equilibrium temperature; conditions: Nematic liquid crystal, visual observation

CCCCCOc1ccc(-c2ccc(C#N)cc2)cc1 [4'-pentoxy-4-cyanobiphenyl]
Solid-liquid equilibrium temperature ([1]; 399 kPa): 326.84 ± 0.19 K | Solid-liquid equilibrium temperature ([1]; 1399 kPa): 327.21 ± 0.21 K | Solid-liquid equilibrium temperature ([1]; 2400 kPa): 327.52 ± 0.22 K | Solid-liquid equilibrium temperature ([1]; 3001 kPa): 327.72 ± 0.23 K | Solid-liquid equilibrium temperature ([1]; 3400 kPa): 327.86 ± 0.23 K | Solid-liquid equilibrium temperature ([1]; 4401 kPa): 328.2 ± 0.23 K | Solid-liquid equilibrium temperature ([1]; 5401 kPa): 328.54 ± 0.24 K | Solid-liquid equilibrium temperature ([1]; 6402 kPa): 328.84 ± 0.24 K | Solid-liquid equilibrium temperature ([1]; 7403 kPa): 329.23 ± 0.25 K | Solid-liquid equilibrium temperature ([1]; 8403 kPa): 329.55 ± 0.25 K | Solid-liquid equilibrium temperature ([1]; 9405 kPa): 329.86 ± 0.25 K | Solid-liquid equilibrium temperature ([1]; 10005 kPa): 330.08 ± 0.26 K | Liquid-liquid equilibrium temperature ([2]; 399 kPa): 341.58 ± 0.19 K | Liquid-liquid equilibrium temperature ([2]; 1399 kPa): 341.96 ± 0.21 K | Liquid-liquid equilibrium temperature ([2]; 2400 kPa): 342.38 ± 0.23 K | Liquid-liquid equilibrium temperature ([2]; 3401 kPa): 342.75 ± 0.23 K | Liquid-liquid equilibrium temperature ([2]; 3901 kPa): 342.91 ± 0.24 K | Liquid-liquid equilibrium temperature ([2]; 4401 kPa): 343.13 ± 0.24 K | Liquid-liquid equilibrium temperature ([2]; 4902 kPa): 343.32 ± 0.24 K | Liquid-liquid equilibrium temperature ([2]; 5402 kPa): 343.51 ± 0.25 K | Liquid-liquid equilibrium temperature ([2]; 6403 kPa): 343.9 ± 0.25 K | Liquid-liquid equilibrium temperature ([2]; 7404 kPa): 344.3 ± 0.26 K | Liquid-liquid equilibrium temperature ([2]; 8404 kPa): 344.7 ± 0.26 K | Liquid-liquid equilibrium temperature ([2]; 9405 kPa): 345.1 ± 0.27 K | Liquid-liquid equilibrium temperature ([2]; 10005 kPa): 345.33 ± 0.27 K
